Data taken from patent US20060079510A1, “Use of PARP-1 inhibitors for protecting tumorcidal lymphocytes from apoptosis” (priority 2004, published 2006).
“Also recorded” adds a separate entry of the source.

What was measured:
[1] = test system: peripheral blood lymphocytes; experiment: Oxidant-induced cell death in lymphocytes incubated with mononuclear phagocytes or hydrogen peroxide, flow cytometry; type: cell-based, human; settings: for protection of lymphocytes from phagocyte- or hydrogen peroxide-induced (oxidant/ROS-induced) cell death / apoptosis: pretreatment, PJ34 250 nM, DPQ 3 μM, Z-VAD.fmk 100 μM, overnight incubation with phagocytes or H2O2; for protection of lymphocytes from phagocyte-induced cell death (FIG. 1): overnight with autologous mononuclear phagocytes, catalase 200 U/ml, histamine, DPI 3 μM, p<0.001, n=4
Protocol: Peripheral venous blood was obtained as freshly prepared leukopacks from healthy blood donors at the Blood Centre, Sahlgren's Hospital, Göteborg, Sweden, to study the activation characteristics of cytotoxic lymphocytes in the presence and absence of MO, and ROM inhibitors. The blood (65 ml) was mixed with 92.5 ml Iscove's medium, 35 ml 6% Dextran (Kabi Pharmacia, Stockholm, Sweden) and 7.5 ml acid citrate dextrose (ACD) (Baxter, Deerfield, Ill.). After incubation for 15 minutes at room temperature, the supernatant was carefully layered onto Ficoll-Hypaque (Lymphoprep, Myegaard, Norway). Mononuclear cells (MNC) were collected at the interface after centrifugation at 380 g for 15 minutes at room temperature, washed twice in PBS and resuspended in Iscove's medium supplemented with 10% human AB^+ serum. During all further separation of cells, the cell suspensions were kept in siliconized test tubes (Vacuette, Greiner, Stockholm).
The MNC were further separated into lymphocyte and monocyte (MO) populations using the counter-current centrifugal elutriation (CCE) technique originally described by Yasaka and co-workers (Yasaka, T. et al., J. Immunol., 127:1515) with modifications as described in Hansson, M., et al. (J. Immunol., 156: 42 (1996); hereby incorporated by reference). Briefly, the sedimentation rate of cells in a spinning rotor was balanced by a counter-directed flow through the chamber. By slowly increasing the flow rate, fractions of cells of well-defined sizes were collected. The MNC were resuspended in elutration buffer containing 0.5% BSA (ICN Biomedicals Inc., Aurora, Ohio) and 0.1% EDTA (VWR, Göteborg, Sweden) in buffered NaCl and fed into a Beckman J2-21 ultracentrifuge with a JE-6B rotor (Bechman Coulter Inc., Fullerton, Calif.) at 2100 rpm. A fraction with >90% MO was obtained at a flow rate of 19 ml/min. A lymphocyte fraction enriched for NK-cells (CD3^−/56^+ phenotype) and T-cells (CD3^+/56^−) was recovered at flow rates of 14-15 ml/min. This fraction contained <3% MO and consisted of CD3ε^−/56^+ NK-cells (45-50%), CD3ε^+/56^− T-cells (35-40%), CD3ε^−/56^− cells (5-10%), and CD3ε^+/56^+ cells (1-5%), as judged by flow cytometry. In some experiments, dynabeads (Dynal A/S, Oslo, Norway) coated with anti-CD56 were used to obtain purified lymphocyte preparations of T-cells, as described in detail by Hansson, M., et al., incorporated above.
Briefly, lymphocytes were incubated overnight with autologous mononuclear phagocytes in the presence or absence of catalase (200 U/ml), histamine ([…]) or DPI (3 μM).
Briefly, lymphocytes, pretreated with PJ34 (250 ηM), Z-VAD.fmk (100 μM) or medium, were subjected to mononuclear phagocytes at different Mo/Ly ratios (FIG. 5A) or to different concentrations of H2O2 (FIG. 5C). FIGS. 5A-5D illustrate that PJ34 protected lymphocytes from cell death induced by phagocytes ([…], ratio 1:1, p<0.05) and hydrogen peroxide (FIGS. 5C and 5D, 250 μM, p<0.001).

AML = experiment: Treatment of subjects with AML in remission (Example 1); type: in vivo, human; settings: 3-aminobenzamide s.c. (50 mg/day) with histamine dihydrochloride, IL-2, cytarabine and thioguanine, 21-day cycles
Protocol: Subjects with AML in a first, second, subsequent or complete remission are treated in 21-day courses with IL-2 (35-50 μg (equivalent to 6.3-9×10^5 IU) subcutaneously (s.c.). twice daily), repeated with three to six-week intermissions and continued until relapse. In cycle #1, patients receive three weeks of low dose chemotherapy consisting of 16 mg/m^2/day cytarabine, and 40 mg/day thioguanine. Concomitantly, patients are injected subcutaneously with an effective amount of a pharmaceutically acceptable form of a PARP-1 inhibitor, 3-aminobenzamide. Additionally, the patients are administered an effective amount of a pharmaceutically acceptable form of histamine dihydrochloride to boost circulating histamine to a beneficial level twice daily (above 0.2 μmole/L). Histamine levels can be continually boosted to beneficial levels by administering histamine dihydrochloride by injection at 0.2 to 2.0 mg or 3-10 μg/kg twice daily in a pharmaceutically acceptable form of a ROM inhibitory compound during the IL-2 treatment. Thereafter, the subjects are allowed to rest for three to six weeks. After the rest period at the end of the first cycle (cycle #1), the second cycle (cycle #2) is initiated. […]

NK cells = settings: H2-receptor antagonist or agonist; cited from earlier work
tumoricidal lymphocytes = experiment: Tumor-killing function of tumoricidal lymphocytes after phagocyte or hydrogen peroxide exposure; type: cell-based, human; settings: PJ34 250 nM or DPQ 3 μM
Description: As detailed above, a significant part of the dysfunction of tumor-killing lymphocytes at the site of malignant tumor growth has been attributed to inhibitory signals from tumor-infiltrating or tumor-adjacent phagocytes. […] However, the molecular events underlying phagocyte-induced lymphocyte apoptosis are not fully understood. The role of two enzyme systems responsible for induction and execution of apoptosis, caspases and the poly(ADP-ribose) polymerase (PARP) were investigated. Human tumoricidal lymphocytes were incubated with autologous mononuclear phagocytes or with exogenously added hydrogen peroxide, and assayed for apoptotic features at various time points. […] It is therefore believed that PARP-dependent cell death may be critically involved in phagocyte-dependent, oxygen free radical-induced cell death.

[2] = test system: neoplastic disease and/or viral infection; experiment: Treatment of subjects with neoplastic disease and/or viral infection (Example 4); type: in vivo, human; settings: CEP-6800 250 mg/day with IL-2, interferon-α and histamine, repeated every 4-6 weeks
Protocol: Subjects in need of enhanced cytotoxic lymphocyte activity, because of a neoplastic disease, and/or a viral infection such as hepatitis B (HBV), hepatitis C(HCV), human immunodeficiency virus (HIV), human papilloma virus (HPV) or herpes simplex virus (HSV) type 1 or 2, or other viral infections, are administered 250 mg/day of CEP-6800, a PARP-1 inhibitor. Additionally, subjects are administered human recombinant IL-2 (Proleukin®, Eurocetus) by subcutaneous injection or by continuous infusion of 27 μg/kg/day on days 1-5 and 8-12. The subjects also receive a daily dose of 6×10^6 U interferon-α administered by a suitable route, such as subcutaneous injection. This treatment also includes administering 0.2 to 2.0 mg or 3-10 μg/kg of histamine injected 1, 2, or more times per day in conjunction with the administration of IL-2 and/or interferon-α.
The above procedure is repeated every 4-6 weeks until an objective regression of the tumor is observed, or until improvement in the viral infection occurs. The therapy can be continued even after a first, second, or subsequent complete remission has been observed. In patients with complete responses, the therapy can be given with longer intervals between cycles. […]

Hepatitis C = experiment: Treatment of subjects suffering from Hepatitis C (Example 3); type: in vivo, human; settings: PJ34 100 mg/day intravenously, three weeks
Protocol: Subjects suffering from Hepatitis C are identified. Individuals are administered 100 mg/day of a PARP-1 inhibitor, PJ34, intravenously for a period of three weeks.

caspase-3 = experiment: Caspase activation in lymphocytes, FLICA assay (FAM-VAD.fmk), flow cytometry; type: cell-based, human; settings: overnight, phagocytes ratio 1:1 or H2O2 250 μM; PJ34 pretreatment printed as 250 μM and 250 ηM
Protocol: To study the role of caspases for ROS-induced cell death in anti-neoplastic cells, lymphocytes subjected to phagocytes or hydrogen peroxide were assayed for binding of a fluorochrome-conjugated caspase-3 inhibitor. Briefly, lymphocytes were incubated overnight with hydrogen peroxide (250 μM) or ROS-producing phagocytes (Ph, ratio 1:1) and then assayed for caspase activation using a Fluorochrome-Labeled Inhibitor of Caspases (FLICA) assay. Lymphocytes were incubated with a FITC-labeled caspase inhibitor (FAM-VAD.fmk, MP Biomedicals, Irvine, Calif.) for one hour according to the instructions provided by the manufacturer, and the percentage of cells with active caspase-3 was determined using flow cytometry. Caspase-3 activation was also monitored using the fluorogenic caspase-3 substrate PhiPhiLux (Oncolmmunin, Gaithersburg, Md.) according to the manufacturer's instructions. The FLICA reagent traverses the membranes of all cells and bind to the active site of activated caspase 3. Thus, only cells with activated caspases will retain the reagent and become fluorescent.
Briefly, after overnight incubation with mononuclear phagocytes (Ph, ratio 1:1) or hydrogen peroxide (250 μM) in the presence or absence of PJ34 (250 μM), lymphocytes were stained with a FITC-labeled caspase inhibitor (FAM-VAD.fmk) and assayed for caspase activation using flow cytometry. […]

lymphocytes = experiment: Altered mitochondrial transmembrane potential (Mitochondrial Membrane Sensor Kit) and To-Pro-3 staining; type: cell-based, human; settings: H2O2 250 μM or mononuclear phagocytes; PJ34 250 μM as printed
Protocol: A Mitochondrial Membrane Sensor Kit (BD Clontech) was used to identify cells with altered mitochondrial transmembrane potential according to the manufacturer's protocol.
Briefly, lymphocytes exposed to hydrogen peroxide (250 μM) were assayed for altered mitochondrial transmembrane potential and plasma membrane integrity at various time points. Depolarization of the Ψm is seen as an increase in green fluorescence (mitosensor monomers).

[3] = vs subjects without PARP-1 inhibitor

## Q-VD.OPh
[1]
  protection of lymphocytes from phagocyte- or hydrogen peroxide-induced (oxidant/ROS-induced) cell death / apoptosis: failed to protect

## NC(=O)c1cccc(N)c1 [3-aminobenzamide]
AML
  clinical outcome in AML: reduction in cancer

## CN(C)CCCSC(=N)N [dimaprit]
NK cells
  effect of histamine on granulocyte mediated suppression of antibody dependent cytotoxicity of NK cells: mimicked

## O=C1NCCc2c(OCCCCN3CCCCC3)cccc21 [DPQ]
Tumoricidal lymphocytes
  restoration of tumor-killing function: restored
[1]
  protection of lymphocytes from phagocyte- or hydrogen peroxide-induced (oxidant/ROS-induced) cell death / apoptosis: completely protected; also recorded: resisted the oxidative stress

## NCc1ccc2[nH]c3c4c(c5c(c3c2c1)C(=O)NC5=O)CCC4 [CEP-6800]
[2]
  viral infection or tumor mass: reduction in viral infection or tumor mass

## CN(C)CC(=O)Nc1ccc2[nH]c(=O)c3ccccc3c2c1 [PJ34]
Hepatitis C
  symptoms associated with Hepatitis C: reduction in symptoms associated with Hepatitis C
Hepatitis C; [3]
  ROM-mediated damage: reduction in ROM-mediated damage
  cytotoxic lymphocyte activation: increase in cytotoxic lymphocyte activation
caspase-3
  caspase activation triggered by phagocytes and H2O2 (FIG. 3): reversed
Tumoricidal lymphocytes
  restoration of tumor-killing function: restored
lymphocytes
  protection from oxidant-induced alterations of Ψm (FIG. 4): protected
[1]; PJ34 250 ηM, H2O2 250 μM, p<0.001
  protection from cell death induced by hydrogen peroxide (FIGS. 5C and 5D): protected
[1]; PJ34 250 ηM, Mo/Ly ratio 1:1, p<0.05
  protection from cell death induced by phagocytes: protected
[1]
  protection of lymphocytes from phagocyte- or hydrogen peroxide-induced (oxidant/ROS-induced) cell death / apoptosis: completely protected; also recorded: resisted the oxidative stress

## c1ccc([I+]c2ccccc2)cc1 [DPI, diphenyliodonium]
[1]
  protection of lymphocytes from phagocyte-induced cell death (FIG. 1): fully protected

## CNC(=C[N+](=O)[O-])NCCSCc1ccc(CN(C)C)o1 [ranitidine]
NK cells
  effect of histamine on granulocyte mediated suppression of antibody dependent cytotoxicity of NK cells: blocked

B1: catalase: H2O2 scavenger (Boehringer-Mannheim) (protein, UniProt P00432 2-527, looked up)
Catalase: ADNRDPASDQMKHWKEQRAAQKPDVLTTGGGNPVGDKLNSLTVGPRGPLLVQDVVFTDEMAHFDRERIPERVVHAKGAGAFGYFEVTHDITRYSKAKVFEHIGKRTPIAVRFSTVAGESGSADTVRDPRGFAVKFYTEDGNWDLVGNNTPIFFIRDALLFPSFIHSQKRNPQTHLKDPDMVWDFWSLRPESLHQVSFLFSDRGIPDGHRHMNGYGSHTFKLVNANGEAVYCKFHYKTDQGIKNLSVEDAARLAHEDPDYGLRDLFNAIATGNYPSWTLYIQVMTFSEAEIFPFNPFDLTKVWPHGDYPLIPVGKLVLNRNPVNYFAEVEQLAFDPSNMPPGIEPSPDKMLQGRLFAYPDTHRHRLGPNYLQIPVNCPYRARVANYQRDGPMCMMDNQGGAPNYYPNSFSAPEHQPSALEHRTHFSGDVQRFNSANDDNVTQVRTFYLKVLNEEQRKRLCENIAGHLKDAQLFIQKKAVKNFSDVHPEYGSRIQALLDKYNEEKPKNAVHTYVQHGSHLSAREKANL
[1]
  protection of lymphocytes from phagocyte-induced cell death (FIG. 1): fully protected
